The results in this text go back to US20130203846A1, “PHENYL CARBAMATE COMPOUNDS FOR USE IN PREVENTING OR TREATING ALS” (Bio-Pharm Solutions Co., Ltd., priority 2011, published 2013).

Marks after values point to notes of the source that are not given here.

Holding throughout (assay type): in vivo, mouse
One assay concerns male ICR mice. The experiment in a line: MES (maximal electroshock seizure) test, mice. Conditions: for ED50: Mus musculus, oral, at peak time. The procedure:
The obtained results are shown as mean±sem. The difference between the groups was statistically analyzed by ANOVA, and then, further examined by Dunnett's test or Bonferroni test. If p is less than 0.05, it was determined that the difference between the groups had statistical significance.
(In general: The maximal electroshock test induces tonic seizures with an electrical stimulus.)

Assay [1] relates to mice expressing mutated human SOD1-G93A transgene. As to the kind of experiment: Survival of ALS transgenic mice. Conditions: TG G93A SOD1 mice.
Assay [2] shares this test system. The experiment in a line: Clinical scoring and disease onset of ALS transgenic mice. The note with it: TG G93A SOD1 mice. From the text:
Altogether 80 male and female mice expressing mutated human SOD1-G93A transgene (heterozygous TgN-SOD1-G93A-1Gur; Gurney et al. (1994), Science 264, 1772. 1775) and 15 of their wild type littermates were used for the experiments. […] PCR was used to genotype the mice before the start of the experiments.
The animals were grouped as follows: • <Non-transgenic male mice> • Group 1: 15 WT mice treated with vehicle (30% (w/v) polyethyleneclycol 400 (PEG400), once a day, p.o.) starting at 60 days of age and continuing until end-point • <Transgenic G93A SOD1 male mice: ALS-transgenic mice> • Group 2: 20 transgenic mice treated with vehicle (30% (w/v) polyethyleneclycol 400 (PEG400), once a day, p.o.) staring at 60 days of age and continuing until end-point • Group 3: 20 transgenic mice treated with a drug (Compound 1) at dose of 3 mg/kg (once a day, p.o.) staring at 60 days of age and continuing until end-point • Group 4: 20 transgenic mice treated with Compound 1 at dose of 10 mg/kg (once a day, p.o.) staring at 60 days of age and continuing until end-point • Group 5: 20 transgenic mice treated with Compound 1 at dose of 50 mg/kg (once a day, p.o.) staring at 60 days of age and continuing until end-point
Treatment with drug (Compound 1) was started at the age of 60 days and continued until the mice reached 150 days of age. The drug was administered p.o. once a day between 8-12 am. The drug solubilized in 30% (w/v) polyethyleneclycol 400 (PEG400), and the obtained solution was briefly vortexed and sonicated at RT (room temperature) for 20 minutes. Treatment solution of the drug was prepared fresh every day. […]
The earliest clinical signs were tremor and shaking of their limbs when the mice are suspended briefly in the air by their tails. […] Animals were scored by lifting them gently by the base of their tails and observing them for tremors, stiffness and their ability to extend their limbs. […]
Onset of disease for each mouse was recorded when they reach a disease stage 4.

For assay [3] the test system is unchanged. As to the kind of experiment: Body weight of ALS transgenic mice. Conditions: TG G93A SOD1 mice; 3, 10, 50 mg/kg p.o. once a day; compared with WT group. The source says: (§1) Altogether 80 male and female mice expressing mutated human SOD1-G93A transgene (heterozygous TgN-SOD1-G93A-1Gur; Gurney et al. (1994), Science 264, 1772. 1775) and 15 of their wild type littermates were used for the experiments. […] PCR was used to genotype the mice before the start of the experiments. […]
Since weight loss has proven to correlate well with disease development and is easily scored co-jointly with disease stage, the mice were weighted once-a-week at the age of 60 days to 90 days and three times a week after they reach the age of 91 days (13 weeks).

The test system is the same in assay [4]. The experiment in a line: Open field test of ALS transgenic mice. Conditions: TG G93A SOD1 mice; 3, 10, 50 mg/kg p.o. once a day; baseline, day 90, day 110. The method, then: as §1
Open field test measurements were performed before the dosing is stated (baseline) and around day 90 (13th age week) and day 110 (16th age week). […] Mice were placed in the center of the chamber and their behaviors were recorded for 10 minutes. The following parameters were recorded: distance moved.

For assay [5], the system named is male mice (ICR). As to the kind of experiment: Muscle relaxation: grip strength test (forelimbs). The note with it: i.p., 120 mg/kg administered. The method, then:
(§2) For testing, male mice (ICR) were purchased from ORIENT BIO INC. (Korea), divided into several groups with 6 mice in each group, and were adapted for 4-5 days. The mice having the weight ranging from 19 g to 26 g were employed for the test. The pharmacological effect of the test compounds on muscle relaxation was evaluated by Rotarod test, grip strength test, and muscular force (wire hang) test. All mice were adapted to the test environment at one hour before starting the tests. The pharmacological effects of all the test compounds were evaluated by administration through peritoneal cavity of the mice (10 ul/g, bw).
A grip strength test using the test animals' forelimbs was performed using an instrument equipped with triangle ring and designed so as to easily grip with the forelimbs of experimental animals, manufactured from Ugo Basile Inc. (Ugo Basile, Mode147106, Italy). […] The mouse was made to grip the rod with its forelimbs, and its tail was pulled, where the force at which the mouse detached from the rod was recorded. […] This experimentation was conducted according to the method described in the reference, ‘Nevins et al. (1993) Quantitative grip strength assessment as a means of evaluating muscle relaxation in mice. […]
(§3) The results of muscle relaxation activity of the phenyl carbamate compounds measured in above Experimental Examples 1.2 to 1.4 are shown in following Table 3.

The subject of assay [6] is male mice (ICR). As to the kind of experiment: Muscle relaxation: wire hang test. Conditions: i.p., 100 mg/kg administered. The method, then:
as §2
This experimentation was conducted using a metal wire of 30 cm in length, which was suspended between two pillars at a height of about 40 cm from the bottom covered with a soft pad. […] Each mouse was made to grip the wire using two forelimbs, and the elapse time before the mouse fell off from the wire to the pad on the bottom was recorded in seconds. Each mouse was given 5 opportunities for this test at an interval of 2 minutes period. The highest 3 records among the test opportunities were selected and the mean value was used as the test result. […]
as §3

The mark [7] stands for this setting: group treated with 10 mg/kg p.o. once a day.

As to `CC(OC(N)=O)C(O)c1ccccc1Cl` (racemic) [Compound 3, 1-(2-chlorophenyl)-1-hydroxypropyl-2-carbamate], the “MES test (po) Peak Time” value in the assay with male ICR mice is given as 2 h.
For the molecule `C[C@H](OC(N)=O)[C@@H](O)c1ccccc1Cl` [Compound 1, 1-(2-chlorophenyl)-(S)-1-hydroxypropyl-(S)-2-carbamate], the “rate (%) of survivor according to survival time (FIG. 1)” value in assay [1] (3, 10, 50 mg/kg p.o. once a day from 60 days of age, early stage of ALS) is listed as “survival time is extended”. Further, in assay [1] (setting [7]), the “effect to increase the survival rate at early stage of ALS (FIG. 1)” value is “especially remarkable”. The “rate (%) of survivor according to disease onset time (FIG. 2)” value in assay [2] (3, 10, 50 mg/kg p.o. once a day, onset = disease stage 4) is listed as “delay the disease onset”. Also, the “clinical score of each group (FIG. 4)” value in assay [2] (3, 10, 50 mg/kg p.o. once a day, scale 1 to 5, compared to TG vehicle group) is reported as “clinical scores were increased by administration of the drug in the dose-dependent manner”. The “effect to delay the disease onset (FIG. 2)” value in assay [2] (setting [7]) was “especially remarkable”. In addition, the “MES test (po) Peak Time” value with male ICR mice worked out at 2 h. For the same molecule, the “body weight of each group (FIG. 3)” value in assay [3] is recorded as “body weight loss compared with WT group was decrease by administration of the drug in the dose-dependent manner”. Further, in assay [4], the “distance moved, open field test (FIG. 5)” value is “some differences between treatments group of transgenic mice”.
In the case of `C[C@@H](OC(N)=O)[C@H](O)c1ccccc1Cl` [Compound 2, 1-(2-chlorophenyl)-(R)-1-hydroxypropyl-(R)-2-carbamate], in the assay on male ICR mice, the “MES test (po) Peak Time” value worked out at 0.25 h.
For the molecule `C[C@H](OC(N)=O)[C@H](O)c1ccccc1Cl` [Compound 5, 1-(2-chlorophenyl)-(R)-1-hydroxypropyl-(S)-2-carbamate], the “MES test (po) Peak Time” value in the assay on male ICR mice amounted to 0.5 h.
In the case of `CC[C@H](OC(N)=O)[C@@H](O)c1ccccc1Cl` [Compound 6, 1-(2-chlorophenyl)-(S)-1-hydroxybutyl-(S)-2-carbamate], in the assay with male ICR mice, the “MES test (po) Peak Time” value is reported as 1 h and the 50% effect level (ED50) was put at a dose of 22.2 mg/kg.
On the same counts, the results for `CC(C)[C@H](OC(N)=O)[C@@H](O)c1ccccc1Cl` [Compound 9, 1-(2-chlorophenyl)-(S)-1-hydroxy-3-methyl-butyl-(S)-2-carbamate] are 0.5 h and 67.1 mg/kg.
Regarding `C[C@H](OC(N)=O)[C@@H](O)c1ccc(Cl)cc1Cl` [Compound 36, 1-(2,4-dichlorophenyl)-(S)-1-hydroxypropyl-(S)-2-carbamate], the ED50 (as a rule, the dose that gives a 50% effect, or the effect in half of the subjects) in the assay with male ICR mice stood at 82.8 mg/kg.
Regarding `C[C@H](OC(N)=O)[C@@H](O)c1c(Cl)cccc1Cl` [Compound 37, 1-(2,6-dichlorophenyl)-(S)-1-hydroxypropyl-(S)-2-carbamate], in the assay on male ICR mice, the “MES test (po) Peak Time” value was 0.25 h.
With `C[C@H](OC(N)=O)[C@@H](O)c1cccc(Cl)c1Cl` [Compound 38, 1-(2,3-dichlorophenyl)-(S)-1-hydroxypropyl-(S)-2-carbamate], in the assay on male ICR mice, the “MES test (po) Peak Time” value turned out to be 2 h and the 50% effect level (ED50) was put at a dose of 91.4 mg/kg.
In the same order, the values of `CC[C@H](OC(N)=O)[C@@H](O)c1ccc(Cl)cc1Cl` [Compound 39, 1-(2,4-dichlorophenyl)-(S)-1-hydroxybutyl-(S)-2-carbamate] are 1 h and 41.2 mg/kg.
Turning to `CC[C@H](OC(N)=O)[C@@H](O)c1c(Cl)cccc1Cl` [Compound 40, 1-(2,6-dichlorophenyl)-(S)-1-hydroxybutyl-(S)-2-carbamate], the ED50 with male ICR mice came to 46.9 mg/kg.
Take `CC(C)[C@H](OC(N)=O)[C@@H](O)c1c(Cl)cccc1Cl` [Compound 42, 1-(2,6-dichlorophenyl)-(S)-1-hydroxy-3-methyl-butyl-(S)-2-carbamate]: in the assay on male ICR mice, the “MES test (po) Peak Time” value is on record as 0.5 h and the 50% effect level (ED50) was put at a dose of 35.2 mg/kg.
In the same order, the values of `C[C@@H](OC(N)=O)[C@H](O)c1c(Cl)cccc1Cl` [Compound 46, 1-(2,6-dichlorophenyl)-(R)-1-hydroxypropyl-(R)-2-carbamate] are 1 h and 35.2 mg/kg.
As for `C[C@@H](OC(N)=O)[C@H](O)c1ccccc1F` [Compound 64, 1-(2-fluorophenyl)-(R)-1-hydroxypropyl-(R)-2-carbamate], the “Grip strength: effect (%) compared to that of control treated with vehicle only” value in the assay with male mice (ICR) [5] is on record as 120 ^a (35.4%). Besides, the “Wire hang: effect (%) compared to that of control treated with vehicle only” value in the assay with male mice (ICR) [6] is listed as 100 ^a (30.8%).
